Legend:
[1] = tested on: 3T3L1 cell line; assay: Adipocyte differentiation inhibition by TREK1 activator (triglyceride amount) in 3T3L1 cells; assay type: cell-based; conditions: 10 μM, 25 μM
Experimental: (§1) 3T3-L1 cells were purchased from ATCC (American Type Culture Collection) and cultured in Dulbecco's Modified Eagle Medium (Gibco, N.Y., USA) with 10% (v/v) bovine serum (Gibco, N.Y., USA) and 1% v/v) penicillin/streptomycin (Thermo Fisher Scientific, N.J., USA). Cultures were maintained in a humidified 5% CO2 incubator at 37° C. After reaching 80% confluence, the differentiation of 3T3L1 cells was induced by replacing the medium with DMEM containing 10% FBS plus 1 μg/mL insulin, 0.5 mM isobutyl-1-methylxanthine (IBMX), 1 μM and 2 μM Rosiglitazone for 3 days. Afterward the medium was changed with DMEM containing 10% FBS plus 1 μg/mL insulin, and the cells were further cultured for 2 to 4 days. Culture medium contained a combination of IBMX, dexamethasone (Dex), insulin, rosiglitazone, and fetal bovine serum (FBS) to differentiate preadipocyte into mature adipocytes. After differentiation, experiments were conducted at three points. Each time the medium was changed over time, the cells were differentiated with IBMX medium for 3 days, and then changed to insulin medium every 2 days thereafter. As a result of confirmation by a microscope, the cell shape of 3T3-L1 was changed over time and intracellular lipid droplets were produced.
The 3T3L1 cell line, in which the same effect as in vivo and conditions was well confirmed, was treated with ML402, which has been reported to have an active effect on TREK1. Specifically, the cells were sampled on the 3rd, 5th, and 7th days by treating ML402 together from the time of differentiation at concentrations of 10 μM, 25 μM, and 100 μM, respectively.

[2] = tested on: 3T3L1 cell line; assay: Differentiation of 3T3L1 preadipocytes into adipocytes; assay type: cell-based
Experimental: The 3T3L1 cell line, a preadipocyte cell line, was treated with MDI (Dexamethasone, IBMX, insulin) as a differentiation-inducing agent, and differentiation was induced for 7 days, and the differentiation into adipocytes was confirmed by staining with oil red 0 (FIG. 1A).
as §1, with “As a result of confirmation by a microscope, the cell shape of 3T3-L1 was changed over time and intracellular lipid droplets were produced.” left out

[3] = tested on: 3T3L1 cells; assay: Intracellular calcium ion concentration in 3T3L1 preadipocytes; assay type: cell-based
From the text: In summary, the activity of TREK1, which is a potassium ion channel, was decreased in the process of differentiation into adipocytes, and as a result, the cell membrane potential was depolarized, and voltage-dependent calcium ion channels were activated, resulting in increasing intracellular calcium ion concentration and promoting the differentiation of adipocytes.

[4] = tested on: primary cultured adipocytes; assay: Potassium conductivity and resting membrane potential in primary cultured adipocytes; assay type: cell-based, mouse (C57BL/6)
Experimental: (§2) The method for obtaining primary cultured adipocytes is as follows. Primary white adipocytes were isolated from inguinal WAT 6-8 week mouse (C57BL/6). The extracted WAT was washed in a 15 mL tube. The enzyme solution was mixed with collagenase Type II (Worthington Industries, Columbus, Ohio, USA) and PBS (Gibco, N.Y., USA), and the tissue was incubated in 20 mL enzyme solution in an incubator at 37° C. for 1 hour. After filtering, the tissue was added to a new 50 mL tube and centrifuged at 10,000 rpm for 10 minutes. The adipocytes floating in the solution were transferred to a new tube using a pipette. Then, the adipocytes were once more centrifuged in DMEM/F12 (Gibco, N.Y., USA) containing 10% (v/v) FBS. After transferring the fatty layer to the cell culture flask, and the flask was filled with DMEM/F12+mixture. The flask was inverted and incubated in a 37° C. CO2 incubator, and the medium was changed after about 5 days.

[5] = tested on: primary cultured adipocytes; assay: Differentiation of primary cultured adipocytes; assay type: cell-based, mouse (C57BL/6); conditions: primary cultured adipocytes treated with TREK1 inhibitor (FIG. 4 legend)
Experimental: as §2

[6] = tested on: 3T3L1 cell line; assay: Potassium ion conductivity by patch clamp in undifferentiated 3T3L1 cells; assay type: cell-based; conditions: undifferentiated condition, patch clamp (FIG. 2B)
Experimental: as §1, with “produced. […]” for “produced.”

**Q.** How did the differentiation process ([1]; 3T3L1, 100 μM (FIG. 7)) turn out when `Cc1cc(Cl)ccc1OCCNC(=O)c1cccs1` [ML402] was run?
**A.** Its differentiation process is “inhibited in a concentration-dependent manner”.

**Q.** And the amount of triglycerides ([1]; 3rd day, 100 μM from the time of differentiation, vs control group (FIG. 7))?
**A.** Its amount of triglycerides is “did not show a significant difference”.

**Q.** And the amount of triglycerides ([1]; 5th and 7th days, 100 μM from the time of differentiation (FIG. 7))?
**A.** Its amount of triglycerides is “decreased in a concentration-dependent manner”.

**Q.** `COC(=O)C1=C(C)NC(C)=C(C(=O)OC)C1c1ccccc1[N+](=O)[O-]` [nifedifine] was tested. Which differentiation into adipocytes ([2]; with voltage-dependent calcium ion channel inhibitor, spadin-treated 3T3L1 (FIGS. 3D and 3E)) did it give?
**A.** The differentiation into adipocytes was “differentiation into adipocytes was also inhibited”.

**Q.** What about the “spadin-induced increase in calcium ions” value ([3]; with voltage-dependent calcium ion channel inhibitor (FIGS. 3B and 3C)) of the same molecule?
**A.** The value was “effectively inhibited”.

**Q.** Which results are given for spadin?
**A.** degree of differentiation into adipocytes ([2]; treated in the process of differentiation of 3T3L1 (FIG. 2C)): the degree of differentiation was significantly increased; resting membrane potential ([4]; 1 μM concentration (FIG. 4C)): the resting membrane potential was also increased; potassium ion conductivity ([4]; 1 μM concentration (FIGS. 4A and 4B)): significantly decreased; differentiation into adipocytes [5]: differentiation into adipocytes is significantly increased; intracellular calcium ion concentration ([3]; 30 minutes after spadin treatment (FIG. 3A)): a significant increase in calcium ions; potassium conductivity [6]: most of the potassium conductivity was decreased

From US20230140453A1, “METHOD FOR CONTROLLING OBESITY BY REGULATING ACTIVITY OF TREK1” (KOREA INSTITUTE OF SCIENCE AND TECHNOLOGY, priority 2021, published 2023)
